Test results as given in patent publication US6610733B2, “Optically active chroman and thiochroman derivatives” (Chugai Seiyaku Kabushiki Kaisha, priority 1999, dated 2003).

Test system: estradiol-induced increase in uterine weight
Assay: Anti-estrogenic activity (oral administration): inhibition of estradiol-induced increase in uterine weight in ovariectomized mice
Type: in vivo, mice (ICR)
Details: ovariectomized mice given 17β-estradiol-benzoate 0.1 μg/mouse s.c. for 3 days, test compound 10 mg/kg p.o., once a day, uterine weight 24 hours after last administration
Description: Test compounds were assayed for their oral anti-estrogenic activity in the following manner. In this experiment, the compounds prepared in Examples 2 and 3 were used as test compounds and the corresponding racemic mixture (10-[(3RS,4RS)-7-hydroxy-3-(4-hydroxyphenyl)-3-methylthiochroman-4-yl]-2-(4,4,5,5,5-pentafluoropentyl)decanoic acid was used as a control compound. This control compound was synthesized according to Reaction Schemes 1 to 7 mentioned above.
In this experiment, each of the test and control compounds was suspended in 5% arabic gum solution and orally administered for 3 days on a once-a-day basis. After 24 hours from the last administration, the test animals were sacrificed and the uteri were removed and weighed.

SMILES	Inhibition (%)	Inhibition (%) (10 mg/kg)
C[C@@]1(c2ccc(O)cc2)CSc2cc(O)ccc2[C@@H]1CCCCCCCCC(CCCC(F)(F)C(F)(F)F)C(=O)O (mixture of isomers) [10-[(3RS,4RS)-7-hydroxy-3-(4-hydroxyphenyl)-3-methylthiochroman-4-yl]-2-(4,4,5,5,5-pentafluoropentyl)decanoic acid, reference compound]	75	–
C[C@@]1(c2ccc(O)cc2)CSc2cc(O)ccc2[C@@H]1CCCCCCCCC(CCCC(F)(F)C(F)(F)F)C(=O)O (stereo partly drawn) [Example 2, 10-[(3R,4R)-7-Hydroxy-3-(4-hydroxyphenyl)-3-methylthiochroman-4-yl]-2-(4,4,5,5,5-pentafluoropentyl)decanoic Acid]	90	–
C[C@@]1(c2ccc(O)cc2)CSc2cc(O)ccc2[C@@H]1CCCCCCCCC(CCCC(F)(F)C(F)(F)F)C(=O)O (single isomer, unassigned) [Example 10, Peak 1]	–	87
C[C@@]1(c2ccc(O)cc2)CSc2cc(O)ccc2[C@@H]1CCCCCCCCC(CCCC(F)(F)C(F)(F)F)C(=O)O (single isomer, unassigned) [Example 10, Peak 2]	–	78
C[C@]1(c2ccc(O)cc2)CSc2cc(O)ccc2[C@H]1CCCCCCCCC(CCCC(F)(F)C(F)(F)F)C(=O)O (stereo partly drawn) [Example 3, 10-[(3S,4S)-7-Hydroxy-3-(4-hydroxyphenyl)-3-methylthiochroman-4-yl]-2-(4,4,5,5,5-pentafluoropentyl)decanoic Acid]	69	–
